The target in one data set is T1, CRBN-FLAG (Homo sapiens, UniProt Q96SW2).
T1 construct: made in house; host or cells: Sf9 insect cells (Bac-to-bac baculovirus)
Put plainly: In vitro binding assay of purified recombinant protein with thalidomide-immobilized beads. From the text: (§1) Recombinant CRBN-FLAG and DDB1-V5-His proteins were expressed in the insect Sf9 cells by using the Bac-to-bac baculovirus expression system (Invitrogen) and purified using anti-FLAG M2 agarose beads (Sigma) and Ni-NTA agarose beads (Qiagen), respectively. Purified CRBN-FLAG and/or DDB1-V5-His were mixed with thalidomide-immobilized beads, and the bound proteins were eluted with an SDS sample buffer. For analysis of CRBN-deletion mutant, GST-fused CRBN and its mutants were expressed in E. coli BL21 and purified using glutathione Sepharose (GE Healthcare). CRBN mutants were overexpressed in 293T cells by transfection using Lipofectamine 2000 (Invitrogen). Subsequent binding assays were carried out as described above.

The next data set concerns the target T2, DDB1-V5-His (Homo sapiens, UniProt Q16531).
T2 construct: made in house; host or cells: Sf9 insect cells (Bac-to-bac baculovirus)
The description is as above.
Excerpt: as §1

The target of another data set is T3, CRBN W386A (Homo sapiens, UniProt Q96SW2, W386A).
T3 construct: expressed in transfected cells; host or cells: 293T
T3 sequence (Q96SW2 whole entry W386A): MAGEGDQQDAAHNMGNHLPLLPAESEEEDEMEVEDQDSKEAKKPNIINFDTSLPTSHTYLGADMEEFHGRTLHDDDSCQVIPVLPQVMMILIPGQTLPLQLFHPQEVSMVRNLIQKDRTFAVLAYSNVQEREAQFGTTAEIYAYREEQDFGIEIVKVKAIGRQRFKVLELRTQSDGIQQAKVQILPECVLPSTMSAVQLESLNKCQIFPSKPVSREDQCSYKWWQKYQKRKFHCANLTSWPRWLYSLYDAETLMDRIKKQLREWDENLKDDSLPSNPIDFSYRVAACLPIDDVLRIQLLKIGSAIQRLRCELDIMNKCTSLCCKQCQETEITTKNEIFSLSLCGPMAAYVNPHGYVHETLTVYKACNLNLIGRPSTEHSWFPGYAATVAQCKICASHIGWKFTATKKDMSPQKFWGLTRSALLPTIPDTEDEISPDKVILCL
Put plainly: Binding of CRBN point mutant from 293T extracts to thalidomide-immobilized beads.
Excerpt: First, thalidomide-binding region was investigated by using the N-terminal and C-terminal deletion mutants. […] The present inventors investigated whether this CRBN YW/AA functionally active in the cells. The subcellular localization of this mutant was indistinguishable from that of wild-type CRBN.
as §1

Another data set addresses T4, zCrbn YW/AA (Danio rerio, UniProt Q68EH9, W376A/Y374A).
T4 construct: expressed in transfected cells; host or cells: 293T
T4 sequence (Q68EH9 1-431 Y374A/W376A): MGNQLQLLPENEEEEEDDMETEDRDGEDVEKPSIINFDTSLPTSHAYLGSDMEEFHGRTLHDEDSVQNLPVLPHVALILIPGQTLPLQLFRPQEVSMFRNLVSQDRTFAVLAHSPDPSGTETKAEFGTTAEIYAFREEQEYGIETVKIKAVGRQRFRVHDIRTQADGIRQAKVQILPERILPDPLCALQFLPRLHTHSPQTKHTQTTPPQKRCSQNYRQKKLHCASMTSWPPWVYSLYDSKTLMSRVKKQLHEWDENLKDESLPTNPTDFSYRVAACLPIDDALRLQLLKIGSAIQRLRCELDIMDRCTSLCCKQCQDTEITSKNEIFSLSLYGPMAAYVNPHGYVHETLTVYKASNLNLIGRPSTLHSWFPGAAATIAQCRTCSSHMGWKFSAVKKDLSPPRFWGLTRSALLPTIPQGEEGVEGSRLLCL
The data set is described as follows: Binding of FLAG-zCrbn YW/AA from 293T lysate to thalidomide beads. Also on record: species or system zebrafish. The settings on record: FLAG-zCrbn YW/AA in 293T lysate. As for the experimental part: FIG. 14 relates to biochemical analysis results of zCrbn. […] Bound proteins were eluted by thalidomide, and eluate were analyzed by western blotting. zCrbn bound to thalidomide. (B) Lysate from 293T cells overexpressing FH-zCrbn was immunoprecipitated with anti-FLAG antibody, and DDB1 was detected by western blotting. […] (C) Lysate from FLAG-zCrbn (wild type) or FLAG-zCrbn YW/AA overexpressed in 293T cells was mixed with thalidomide beads. For quantification, various amounts of input and eluate fraction were analyzed by western blotting.
If so, its teratogenicity should be alleviated by expression of functionally active but thalidomide-binding-defective zCrbn. To examine this idea, the present inventors prepared mutants in which Y374 and W376 are substituted with alanine (corresponding to YW/AA in humans, namely Y384A/W386A). The zCrbn YW/AA has extremely low thalidomide-binding activity. In the absence of thalidomide, Overexpression of wild-type zCrbn or zCrbn YW/AA had no discernible effect on fin and otic vesicle development. […] Also thalidomide treatment of embryos overexpressing wild-type zCrbn reduced the size of otic vesicles to approximately 66% of the control size. […] Thalidomide-induced fin degeneration was also rescued by overexpression of zCrbn YW/AA.

The subject of a further data set is zebrafish embryos. Put plainly: Zebrafish embryo development, pectoral fins and otic vesicles. It counts as in vivo, zebrafish (Danio rerio). From the text: To elucidate possible effects of thalidomide on zebrafish development, dechorionated embryos were transferred to media containing various concentrations of thalidomide. […] More specifically, formation of the endoskeletal disc of the pectoral fin was inhibited at 75 hpf (FIG. 4A), and the size of otic vesicles at 30 hpf was reduced (FIG. 4B). Retardation of pectoral fin development was also detected at 48-hpf embryos (FIGS. 5C and D). Recent studies have reported that development of pectoral fins and otic vesicles in teleosts (including zebrafish) shares common molecular mechanisms with the limb and ear development in tetrapods (Cited Literatures 24 to 26).
Thalidomide was dissolved in DMSO and added to a final concentration of 400 μM to E3 medium prewarmed to […]. Zebrafish embryos were dechorionated prior to thalidomide as follows: At 2 hpf, the embryos were incubated in E3 medium containing 2 mg/ml Protease type XIV (Sigma) for three minutes and then washed five times with the medium. After dechorionation, embryos were immediately transferred to E3 medium containing thalidomide, and observed for three days. The thalidomide-containing medium was exchanged every 12 hours.
Extracellular matrices associated with chondrocytes were stained with Alcian blue (Cited Literature 40). Zebrafish embryos were fixed in 3.7% neutral buffered formaldehyde for overnight. The next day, the embryos were washed with 100% ethanol and rehydrated with PBS. Subsequently, the embryos were incubated with a solution of 0.05% trypsin in saturated sodium tetraborate for one to three hours. Pigmentation of fish was removed by 3% hydrogen peroxide/1% potassium hydroxide solution. Stained embryos were stored in 70% glycerol-containing PBS solution.
Microinjection into one-cell stage embryos was carried out in accordance with Cited Literature 39. The present inventors used a nitrogen gas-pressure microinjector (IM 300, Narishige Co., Ltd.) for injection. Capped mRNAs were prepared in vitro using the mMESSAGE mMACHINE in vitro transcription kit (Ambion).
Zebrafish embryos at 48 hpf were anesthetized with 1% methylcellulose and 0.003% 3-amino benzoic acid ethyl ester (Sigma) and mounted on a slide glass. Then, otic vesicles of ten embryos randomly selected from each sample were photographed. The size was measured using the NIH image J software and compared to that of control. Average sizes and standard errors were calculated, and p-values were determined by the Mann-Whitney U test.

Entries after “also recorded” stand apart in the source; their conditions may differ.

T1 sequence (Q96SW2 whole entry): as the sequence (Q96SW2 whole entry W386A) above, with A386W counted along it
T2 sequence (Q16531 whole entry): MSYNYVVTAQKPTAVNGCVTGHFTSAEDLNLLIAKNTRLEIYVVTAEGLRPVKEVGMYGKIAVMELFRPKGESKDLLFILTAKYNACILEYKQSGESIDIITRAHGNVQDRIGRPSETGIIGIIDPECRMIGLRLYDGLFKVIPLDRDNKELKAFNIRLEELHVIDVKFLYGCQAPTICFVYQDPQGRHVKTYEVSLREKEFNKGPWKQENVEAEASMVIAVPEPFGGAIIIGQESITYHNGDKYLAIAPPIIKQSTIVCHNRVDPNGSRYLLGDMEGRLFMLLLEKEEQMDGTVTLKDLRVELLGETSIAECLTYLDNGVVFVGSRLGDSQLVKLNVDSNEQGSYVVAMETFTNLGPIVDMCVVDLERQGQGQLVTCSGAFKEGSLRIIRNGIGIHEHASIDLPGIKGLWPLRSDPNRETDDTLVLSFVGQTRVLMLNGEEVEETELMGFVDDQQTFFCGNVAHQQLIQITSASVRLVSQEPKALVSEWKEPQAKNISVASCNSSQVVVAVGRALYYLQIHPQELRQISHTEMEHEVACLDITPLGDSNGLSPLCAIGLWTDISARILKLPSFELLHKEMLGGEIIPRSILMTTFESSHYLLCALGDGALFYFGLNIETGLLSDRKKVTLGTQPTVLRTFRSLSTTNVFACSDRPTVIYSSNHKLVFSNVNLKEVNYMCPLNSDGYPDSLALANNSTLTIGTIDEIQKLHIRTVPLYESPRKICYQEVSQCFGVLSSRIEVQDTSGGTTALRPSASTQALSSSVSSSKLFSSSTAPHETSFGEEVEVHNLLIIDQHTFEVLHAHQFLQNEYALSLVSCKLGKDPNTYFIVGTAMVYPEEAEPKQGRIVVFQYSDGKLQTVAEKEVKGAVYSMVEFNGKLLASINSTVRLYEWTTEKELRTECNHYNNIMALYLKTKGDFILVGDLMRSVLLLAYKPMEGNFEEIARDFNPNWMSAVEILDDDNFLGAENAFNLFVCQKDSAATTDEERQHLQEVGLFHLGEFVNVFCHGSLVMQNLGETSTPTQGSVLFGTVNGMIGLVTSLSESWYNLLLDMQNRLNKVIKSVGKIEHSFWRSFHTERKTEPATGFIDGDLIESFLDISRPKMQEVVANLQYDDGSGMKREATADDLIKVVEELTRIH

Turning to `O=C1CCC(N2C(=O)c3ccccc3C2=O)C(=O)N1` (stereo not shown) [thalidomide], at CRBN-FLAG, the “binding of thalidomide to recombinant CRBN-FLAG” value is on record as “directly binds”. The “binding of thalidomide to recombinant DDB1-V5-His” value on DDB1-V5-His is recorded as “indirectly via CRBN”. Also, on CRBN W386A, the “thalidomide binding of CRBN W386A” value is “defective”. Also, the “thalidomide-binding activity of zCrbn YW/AA” value on zCrbn YW/AA is on record as “extremely low; also recorded: obviously weak”. Moreover, the “size of otic vesicles, of the control size” value with zebrafish embryos (400 μM thalidomide, uninjected embryos) was 64.5%; with zebrafish embryos (thalidomide, embryos overexpressing wild-type zCrbn), “approximately 66%”. Also, the “size of otic vesicles” value with zebrafish embryos (30 hpf) is given as “reduced”; in the data set with zebrafish embryos (thalidomide, embryos overexpressing zCrbn YW/AA) it was “did not affect”. Moreover, the “formation of the endoskeletal disc of the pectoral fin” value in the data set on zebrafish embryos (75 hpf) is “inhibited”. Besides, the “development of pectoral fins and otic vesicles” value with zebrafish embryos (embryos in thalidomide-containing media from 2 hpf) is reported as “disturbed”.

The record behind these values is US9217743B2, “Screening method utilizing thalidomide-targeting factor” (Tokyo Institute of Technology, priority 2009, dated 2015).
